# Measured values taken from ChEMBL document CHEMBL2169878 (J Med Chem, 2012).
# The source made the active and inactive calls. The rule behind the calls is not given here.
# Key:
# Plasmodium berghei [1] = assay: Antimalarial activity against Plasmodium berghei ANKA expressing GFP infected in mouse assessed as cure from infection at 50 mg/kg, po administered QD for 3 days measured on day 30; format: functional, organism-based; design: dose 50 mg/kg
# Salmonella typhimurium [2] = assay: Mutagenicity against Salmonella typhimurium TA98 assessed as revertants at 48 uM incubated for 90 mins followed by drug washout measured after 2 days relative to positive control; format: toxicity, organism-based; conditions: salmonella enterica subsp. enterica serovar typhimurium, 1.5 h
# Plasmodium berghei [3] = assay: Antimalarial activity against Plasmodium berghei ANKA expressing GFP infected in mouse assessed as cure from infection at 30 mg/kg, po administered QD for 3 days measured on day 30; format: functional, organism-based; design: dose 30 mg/kg
# Plasmodium falciparum [4] = assay: Resistance ratio of IC50 for chloroquine-resistant Plasmodium falciparum W2 to IC50 for chloroquine-sensitive Plasmodium falciparum D10; format: functional
# Heart [5] = assay: Cardiotoxicity against Sprague-Dawley rat Langendorff perfused heart assessed as cycle length time at 1 uM by electrophysiological analysis (reference value: 258.62 8.87 ms); format: toxicity, tissue-based
# Heart [6] = assay: Cardiotoxicity against Sprague-Dawley rat Langendorff perfused heart assessed as heart rate at 10 uM by electrophysiological analysis (reference value: 236.68 7.83 bpm); format: toxicity, tissue-based
# Plasmodium berghei [7] = assay: Antimalarial activity against Plasmodium berghei ANKA expressing GFP infected in mouse assessed as cure from infection at 100 mg/kg, po administered 24 hrs post-infection measured on day 30; format: functional, organism-based; design: dose 100 mg/kg
# Salmonella typhimurium [8] = assay: Mutagenicity against Salmonella typhimurium TA98 assessed as revertants at 3 uM incubated for 90 mins followed by drug washout measured after 2 days relative to positive control; format: toxicity, organism-based; conditions: salmonella enterica subsp. enterica serovar typhimurium, 1.5 h
# [9] = (§1) Cardiotoxicity against Sprague-Dawley rat Langendorff perfused heart assessed as reduction in left ventricular pressure by electrophysiological analysis; format: toxicity, tissue-based; conditions: Sprague-Dawley, Langendorff perfused heart
# Heart [10] = assay: as §1; format: toxicity, tissue-based
# Heart [11] = assay: Cardiotoxicity against Sprague-Dawley rat Langendorff perfused heart assessed as atrioventricular conduction time at 0.1 uM by electrophysiological analysis (reference value: 42.67 2.29 ms); format: toxicity, tissue-based
# Heart [12] = assay: Cardiotoxicity against Sprague-Dawley rat Langendorff perfused heart assessed as atrioventricular conduction time at 30 uM by electrophysiological analysis (reference value: 42.67 2.29 ms); format: toxicity, tissue-based
# Salmonella typhimurium [13] = assay: Mutagenicity against Salmonella typhimurium TA100 assessed as revertants at 48 uM incubated for 90 mins followed by drug washout measured after 2 days relative to positive control; format: toxicity, organism-based; conditions: salmonella enterica subsp. enterica serovar typhimurium
# Heart [14] = assay: Cardiotoxicity against Sprague-Dawley rat Langendorff perfused heart assessed as heart rate at 1 uM by electrophysiological analysis (reference value: 236.68 7.83 bpm); format: toxicity, tissue-based
# Heart [15] = assay: Cardiotoxicity against Sprague-Dawley rat Langendorff perfused heart assessed as cycle length time at 30 uM by electrophysiological analysis (reference value: 258.62 8.87 ms); format: toxicity, tissue-based
# Heart [16] = assay: Cardiotoxicity against Sprague-Dawley rat Langendorff perfused heart assessed as intraventricular conduction time at 10 uM by electrophysiological analysis (reference value: 13.92 0.42 ms); format: toxicity, tissue-based
# Plasmodium berghei [17] = assay: Antimalarial activity against Plasmodium berghei ANKA expressing GFP infected in mouse assessed as reduction in parasitemia at 30 mg/kg, po administered QD for 3 days measured 24 hrs post-final dosing by flow cytometric analysis; format: functional; design: scale not given: the % may be the effect or the level left
# Heart [18] = assay: Cardiotoxicity against Sprague-Dawley rat Langendorff perfused heart assessed as atrioventricular conduction time at 1 uM by electrophysiological analysis (reference value: 42.67 2.29 ms); format: toxicity, tissue-based
# Heart [19] = assay: Cardiotoxicity against Sprague-Dawley rat Langendorff perfused heart assessed as QT time interval at 0.1 uM by electrophysiological analysis (reference value: 73.01 4.52 ms); format: toxicity, tissue-based
# Plasmodium falciparum [20] = assay: Resistance ratio of IC50 for chloroquine-resistant Plasmodium falciparum K1 to IC50 for chloroquine-sensitive Plasmodium falciparum NF54; format: functional
# Heart [21] = assay: Cardiotoxicity against Sprague-Dawley rat Langendorff perfused heart assessed as cycle length time at 0.1 uM by electrophysiological analysis (reference value: 258.62 8.87 ms); format: toxicity, tissue-based
# Heart [22] = assay: Cardiotoxicity against Sprague-Dawley rat Langendorff perfused heart assessed as PQ prolongation-induced atrioventricular block at 30 uM by electrophysiological analysis; format: toxicity, tissue-based
# [23] = Cytotoxicity against human HepG2 cells after 24 hrs by neutral red dye uptake assay; format: cell-based; conditions: read-out: TC50
# Heart [24] = assay: Cardiotoxicity against Sprague-Dawley rat Langendorff perfused heart assessed as heart rate at 0.1 uM by electrophysiological analysis (reference value: 236.68 7.83 bpm); format: toxicity, tissue-based
# Plasmodium falciparum [25] = assay: Antiplasmodial activity against chloroquine-resistant Plasmodium falciparum K1 infected in human erythrocytes assessed as inhibition of [3H]hypoxanthine incorporation incubated for 48 hrs prior to [3H]hypoxanthine addition measured after 48 hrs by liquid scintillation counting; format: functional, organism-based
# Heart [26] = assay: Cardiotoxicity against Sprague-Dawley rat Langendorff perfused heart assessed as QT time interval at 30 uM by electrophysiological analysis (reference value: 73.01 4.52 ms); format: toxicity, tissue-based
# [27] = Inhibition of beta hematin formation assessed as molar equivalent of the compound required to inhibit 50 % beta-hematin formation after 18 hrs by spectrophotometric microassay relative to hemin; format: functional
# Plasmodium berghei [28] = assay: Antimalarial activity against Plasmodium berghei ANKA expressing GFP infected in mouse assessed as mean survival days at 50 mg/kg, po administered QD for 3 days (reference value: 6 to 7 days); format: functional
# Plasma = assay: Drug uptake in CD1 albino mouse plasma at 50 mg/kg, po up to 48 hrs; format: ADME, organism-based; design: dose 50 mg/kg, route oral; conditions: in vivo
# Heart [29] = assay: Cardiotoxicity against Sprague-Dawley rat Langendorff perfused heart assessed as atrioventricular conduction time at 10 uM by electrophysiological analysis (reference value: 42.67 2.29 ms); format: toxicity, tissue-based
# Salmonella typhimurium [30] = assay: Mutagenicity against Salmonella typhimurium TA98 assessed as revertants at 1.5 uM incubated for 90 mins followed by drug washout measured after 2 days relative to positive control; format: toxicity, organism-based; conditions: salmonella enterica subsp. enterica serovar typhimurium, 1.5 h
# [31] = Elimination half life in CD1 albino mouse plasma at 50 mg/kg, po measured from 6 to 48 hrs post-dosing; format: ADME, organism-based; design: dose 50 mg/kg, route oral; conditions: read-out: beta t1/2 (converted)
# Plasmodium berghei [32] = assay: Antimalarial activity against Plasmodium berghei ANKA expressing GFP infected in mouse assessed as cure from infection at 30 mg/kg, po administered at 6,24,48 and 72 hrs post-infection measured on day 30; format: functional, organism-based; design: dose 30 mg/kg
# Heart [33] = assay: Cardiotoxicity against Sprague-Dawley rat Langendorff perfused heart assessed as heart rate at 30 uM by electrophysiological analysis (reference value: 236.68 7.83 bpm); format: toxicity, tissue-based
# Salmonella typhimurium [34] = assay: Mutagenicity against Salmonella typhimurium TA100 assessed as revertants at 3 uM incubated for 90 mins followed by drug washout measured after 2 days relative to positive control; format: toxicity, organism-based; conditions: salmonella enterica subsp. enterica serovar typhimurium, 1.5 h
# Liver = assay: Drug uptake in CD1 albino mouse liver at 50 mg/kg, po at 2 to 6 hrs; format: ADME, organism-based; design: dose 50 mg/kg, route oral; conditions: in vivo
# [35] = Cytotoxicity against mouse NIH3T3 cells after 24 hrs by neutral red dye uptake assay; format: cell-based; conditions: read-out: TC50
# Salmonella typhimurium [36] = assay: Mutagenicity against Salmonella typhimurium TA100 assessed as revertants at 12 uM incubated for 90 mins followed by drug washout measured after 2 days relative to positive control; format: toxicity, organism-based; conditions: salmonella enterica subsp. enterica serovar typhimurium
# Plasmodium berghei [37] = assay: Antimalarial activity against Plasmodium berghei ANKA expressing GFP infected in mouse assessed as reduction in parasitemia at 50 mg/kg, po administered QD for 3 days measured 24 hrs post-final dosing by flow cytometric analysis; format: functional; design: scale not given: the % may be the effect or the level left
compound,measurement,setting,value
Clc1ccc(C(Nc2ccnc3cc(Cl)ccc23)c2ccc(CN3CCNCC3)cc2)cc1 (racemic),Activity,Plasmodium berghei [1],Active
same,Activity,Salmonella typhimurium [2],4%
same,Activity,Plasmodium berghei [3],inactive
same,Ratio IC50,Plasmodium falciparum [4],0.93
same,Time,Heart [5],260.13 ms
same,Activity,Heart [6],216.05 bpm
same,Activity,Plasmodium berghei [7],inactive
same,Activity,Salmonella typhimurium [8],4%
same,IC50,[9],9500 nM
same,Activity,Heart [10],Dose-dependent effect
same,Time,Heart [11],42.53 ms
same,Time,Heart [12],75.67 ms
same,Activity,Salmonella typhimurium [13],28%
same,Activity,Heart [14],233.54 bpm
same,Time,Heart [15],317 ms
same,Time,Heart [16],17 ms
same,Activity,Plasmodium berghei [17],99.8%
same,Time,Heart [18],42.38 ms
same,Time,Heart [19],74 ms
same,Ratio IC50,Plasmodium falciparum [20],1.3
same,Time,Heart [21],256.97 ms
same,Activity,Heart [22],Toxic
same,CC50 at 24 h,[23],1800 nM
same,Activity,Heart [24],235.08 bpm
same,IC50,Plasmodium falciparum [25],22 nM
same,Time,Heart [26],94.33 ms
same,inhibition,[27],Dose-dependent effect
same,MSD,Plasmodium berghei [28],29.6 days
same,Drug uptake,Plasma,Active
same,Time,Heart [29],50.56 ms
same,Activity,Salmonella typhimurium [30],2%
same,half-life,[31],22 h
same,Activity,Plasmodium berghei [32],inactive
same,Activity,Heart [33],116.31 bpm
same,Activity,Salmonella typhimurium [34],22%
same,Drug uptake,Liver,Active
same,CC50 at 24 h,[35],1800 nM
same,Activity,Salmonella typhimurium [36],17%
same,Activity,Plasmodium berghei [37],99.8%
